Key:
[1] = system: CLN3 siRNA knock down PC12 cells; experiment: Protective effect in siRNA CLN3 knock down PC12 cells; assay type: cell-based; conditions: FIG. 3A
Text: (§1) FIGS. 3A and 3B show the neuroprotective effect of selected compounds in phenotypic cell lines. In FIG. 3A, the protective effect is shown in siRNA CLN3 knock down PC12 cells. In FIG. 3B the protective effect is shown in wild-type (WT) and CLN3 knock down mouse fibroblasts. Values are represented as mean±SD. *P<0.05, **p<0.01, ***p<0.001 compared to vehicle control, unpaired student t test.
(§2) Protective Effect in Phenotypic Cell Lines. […] The inventors screened a number of compounds in both neuron-like CLN3 siRNA knock down PC12 cells (FIG. 3A) and CLN3 knockdown mouse fibroblasts (FIG. 3B) as phenotypic models of JNCL. […] FIGS. 3A and 3B show the neuroprotective effect of selected compounds in phenotypic cell lines. In FIG. 3A, the protective effect is shown in siRNA CLN3 knock down PC12 cells. In FIG. 3B the protective effect is shown in wild-type (WT) and CLN3 knock down mouse fibroblasts. Values are represented as mean±SD. *P<0.05, **p<0.01, ***p<0.001 compared to vehicle control, unpaired student t test. […] Selected derivatives show greater protective effect than flupirtine in patient lympoblast cells in CLN1, CLN2, CLN3, CLN6 and CLN8 disease (FIGS. 4A to 4E). FIGS. 4A to 4E show the percentage of patient lymphoblast cells (%), using Trypan Blue dye with Flupirtine (20 μM, vehicle %1 EtOH), drug 3 (20 μM, vehicle %1 EtOH), drug 5 (50 μM, vehicle %4 DMSO) or drug 6 (20 μM, vehicle %4 DMSO) at 24 h. CLN1 (FIG. 4A), CLN2 (FIG. 4B), CLN3 (FIG. 4C), CLN6 (FIG. 4D), and CLN8 (FIG. 4E).

PC12 cells [2] = experiment: ROS in PC12 cells, CellROX green / DAPI staining after H2O2; assay type: cell-based; conditions: 400 μM H2O2 for 4 hours, FIG. 5A
Method: PC12 cells stained with CellROX and DAPI-blue nuclear stain. Greater intensity of green fluorescence indicates greater levels of ROS. Visualized through a microscope (40× magnification, bar=100 μM).
While flupirtine and retigabine are known antioxidants the inventors have shown (FIGS. 5A and 5B) that neuroprotective derivatives operate by a different mechanism of action. […] PC12 cells stained with CellROX and DAPI-blue nuclear stain. Greater intensity of green fluorescence indicates greater levels of ROS. Visualized through a microscope (40× magnification, bar=100 μM).

PC12 cells [3] = experiment: Etoposide-induced apoptosis in PC12 cells, cell viability; assay type: cell-based; conditions: for viability at 1 µM / viability at 3 µM / viability at 10 µM / viability at 30 µM / viability at 0.1 µM / viability at 0.3 µM: Rattus norvegicus, PC-12, etoposide-induced apoptosis; for viability at 1 µM: 1 μM compound, read-out: % Viability 1 μM; for viability at 3 µM: 3 μM compound, read-out: % Viability 3 μM; for viability at 10 µM: 10 μM compound, read-out: % Viability 10 μM; for viability at 30 µM: 30 μM compound, read-out: % Viability 30 μM; for protective activity in WT PC12 etoposide assay: WT PC12 cells; for viability at 0.1 µM: 0.1 μM compound, vehicle 52.1 ± 7.32; for viability at 0.3 µM: 0.3 μM compound
PC12 cells [4] = experiment: Serum starvation-induced apoptosis in PC12 cells, cell viability; assay type: cell-based; conditions: Rattus norvegicus, PC-12, serum starvation-induced apoptosis, PC12 cells; for viability at 1 µM: 1 μM compound, vehicle 55.04 ± 8.99, read-out: % Viability 1 μM; for viability at 3 µM: 3 μM compound, read-out: % Viability 3 μM; for viability at 10 µM: 10 μM compound, read-out: % Viability 10 μM; for viability at 30 µM: 30 μM compound, read-out: % Viability 30 μM
[5] = system: CLN3 knockdown mouse fibroblasts; experiment: Protective effect in CLN3 knock down mouse fibroblasts; assay type: cell-based; conditions: FIG. 3B
Text: as §1, §2

IMR-90-derived neurons = assay type: cell-based, human
Text: The disclosed technology encompasses multiple derivatives of both flupirtine and retigabine. […] The inventors provide further insight into the derivatives from both original molecules. […] By way of explanation, and in no way a limitation of the present invention, the inventors have shown that the derivatives are active in two ways: they (1) upregulate expression of the anti-apoptotic protein Bcl-2 and ceramide pathway synthesis enzymes, and (2) activate autophagy.

primary neurons = conditions: cited from earlier work

With `C=CCOC(=O)Nc1ccc(NCc2ccc(F)cc2)nc1N` [NK-12-1, Allyl 6-(4-fluorobenzylamino)-2-aminopyridin-3-ylcarbamate] the “protective activity” value [1] was “greater activity than flupirtine”, the “amelioration of reactive oxygen species (ROS)” value (PC12 cells [2]) was “no amelioration of reactive oxygen species (ROS)” and the viability at 1 µM (PC12 cells [3]; PC12 cells) was 65.5 ± 8.19%. It also gave a viability at 3 µM (PC12 cells [3]; PC12 cells) of 86.8 ± 9.05%, a viability at 10 µM (PC12 cells [3]; PC12 cells) of 67.5 ± 22.6% and a viability at 30 µM (PC12 cells [3]; PC12 cells) of 45.2 ± 8.92%. For the same molecule, the “protective activity in WT PC12 etoposide assay” value (PC12 cells [3]) was “greater neuroprotective activity”, the viability at 1 µM (PC12 cells [4]) was 108 ± 10.3% and the viability at 3 µM (PC12 cells [4]) was 88.6 ± 8.26%. The viability at 10 µM (PC12 cells [4]) was 82.2 ± 11.8%, the viability at 30 µM (PC12 cells [4]) was 92.6 ± 12.3% and the “protective activity” value [5] was “greater activity than flupirtine”.
Work on `CCOC(=O)Nc1ccc(NCc2ccc(Cl)cc2)nc1N` [NK-4-3, Ethyl (2-amino-6-((4-chlorobenzyl)amino)pyridin-3-yl)carbamate] yielded a viability at 1 µM (PC12 cells [3]; PC12 cells) of 65.7 ± 16.2%, a viability at 3 µM (PC12 cells [3]; PC12 cells) of 64.3 ± 4.28% and a viability at 10 µM (PC12 cells [3]; PC12 cells) of 52.6 ± 10.3%. The viability at 30 µM (PC12 cells [3]; PC12 cells) was 41.5 ± 6.14%, the “protective activity in WT PC12 etoposide assay” value (PC12 cells [3]) was “less active than compounds NK-10-1 and NK-12-1” and the viability at 1 µM (PC12 cells [4]) was 78 ± 9.61%. For the same molecule, the viability at 3 µM (PC12 cells [4]) was 79.3 ± 5.5%, the viability at 10 µM (PC12 cells [4]) was 86.5 ± 11.5% and the viability at 30 µM (PC12 cells [4]) was 86.6 ± 5.32%. The “activity in iPSC/IMR-90-derived neurons” value (IMR-90-derived neurons; 15 ug/mL etoposide for 36 hours, FIG. 2) was “less active”.
In the case of `CCOC(=O)Nc1ccc(NCc2ccc(C(F)(F)F)cc2)nc1N` [NK-40-3, Ethyl (2-amino-6-((4-(trifluoromethyl)benzyl)amino)pyridin-3-yl)carbamate], the “concentration providing protection from etoposide-induced cell death” value (PC12 cells [3]; PC12 cells) is reported as 0.1 µM, the viability at 0.1 µM (PC12 cells [3]; PC12 cells) is reported as 85.8 ± 11.8% and the viability at 0.3 µM (PC12 cells [3]; PC12 cells) is reported as 109 ± 17.3%. The viability at 1 µM (PC12 cells [3]; PC12 cells) was 82.7 ± 8.82%, the viability at 3 µM (PC12 cells [3]; PC12 cells) was 71.5 ± 4.99% and the viability at 10 µM (PC12 cells [3]; PC12 cells) was 97.3 ± 22.8%. The viability at 30 µM (PC12 cells [3]; PC12 cells) was 106 ± 15.8% and the “concentration with neuroprotective activity (as low as)” value (IMR-90-derived neurons; human IMR-90-derived neurons) was 0.1 µM.
In the case of `CCOC(=O)Nc1ccc(NCc2ccc(F)cc2)nc1N` [NK-1-4, Ethyl (2-amino-6-((4-fluorobenzyl)amino)pyridin-3-yl)carbamate, reference compound], the “protective activity” value [1] is reported as “protective activity”, the “amelioration of reactive oxygen species (ROS)” value (PC12 cells [2]) is reported as “do ameliorate ROS” and the viability at 0.1 µM (PC12 cells [3]; PC12 cells) is reported as 67 ± 5.88%. For the same molecule, the viability at 0.3 µM (PC12 cells [3]; PC12 cells) was 64.4 ± 9.35%, the viability at 1 µM (PC12 cells [3]; PC12 cells) was 73.2 ± 13.9% and the viability at 3 µM (PC12 cells [3]; PC12 cells) was 78.1 ± 12.9%. The viability at 10 µM (PC12 cells [3]; PC12 cells) was 76.9 ± 17.4%, the viability at 30 µM (PC12 cells [3]; PC12 cells) was 71.3 ± 18% and the viability at 1 µM (PC12 cells [4]) was 85.4 ± 14%. For the same molecule, the viability at 3 µM (PC12 cells [4]) was 82 ± 14.5%, the viability at 10 µM (PC12 cells [4]) was 81.5 ± 13% and the viability at 30 µM (PC12 cells [4]) was 89.9 ± 17.1%. The “protective activity” value [5] was “protective activity” and the “concentration showing protective activity against Abeta 25-35 apoptotic cell death” value (primary neurons) was 1 µg/mL.
